What all share (type): biochemical
Settings in all cases: Rb substrate, ATP at 3x Km, Ki=IC50/(1+S/Km)

For one experiment, the target named is human cyclin E-CDK2 (Homo sapiens, UniProt P24941). In words: CDK2 HTRF kinase assay (Ki measurement). On the procedure:
(§1) This experiment was conducted using recombinant human cyclin B-CDK1, human cyclin E-CDK2 or human cyclin D1-CDK4 complexes. GST-cyclinE (GST-cycE), CDK2, GST-cyclinB (GST-cycB), CDK1, GST-CDK4 and cyclin D1 (cycD1) cDNA clones in baculovirus vectors were provided by Dr. W. Harper at the Baylor College of Medicine, Houston, Tex. Proteins were co-expressed in High Five™ insect cells and the complex was purified on glutathione Sepharose resin (Pharmacia, Piscataway, N.J.) as previously described (Harper, J. W. et al. Cell 1993, 75, 805-816). […]
(§2) The expression of the 62 Kd protein was under the control of an IPTG inducible promoter in an M15 E. coli strain. […] Purified Rb fusion protein stocks were quantitated for protein concentration, aliquoted, and stored at −70° C.
(§3) Using the protein constructs described above, CDK1, CDK2, and CDK4 HTRF assays were set up. These were done in 96-well format and read in 384-well plate format. […]
(§4) In the CDK4 assay, test compounds were diluted to 3× ntheir final concentrations in 25 mM Hepes, pH 7.0, 6.25 mM MgCl2, 1.5 mM DTT, 135 μM ATP. […] The plates were read using either ViewLux or Victor V readers (PerkinElmer Life Sciences) using an excitation wavelength of 340 nm and dual emission wavelengths of 615 nm and 665 nm. […]
(In general: Time-resolved FRET reads energy transfer from a long-lived donor to a nearby acceptor.)

In another experiment the target is human cyclin B-CDK1 (Homo sapiens, UniProt P06493). In words: CDK1 HTRF kinase assay (Ki measurement). As to the method: as §1, §2, §3, §4
Another experiment has as its target human cyclin D1-CDK4 (Homo sapiens, UniProt P11802). Kind of experiment: CDK4 HTRF kinase assay (Ki measurement). As to the method:
as §1, §2, §3, §4

Chain of human cyclin D1-CDK4 (P11802 whole entry): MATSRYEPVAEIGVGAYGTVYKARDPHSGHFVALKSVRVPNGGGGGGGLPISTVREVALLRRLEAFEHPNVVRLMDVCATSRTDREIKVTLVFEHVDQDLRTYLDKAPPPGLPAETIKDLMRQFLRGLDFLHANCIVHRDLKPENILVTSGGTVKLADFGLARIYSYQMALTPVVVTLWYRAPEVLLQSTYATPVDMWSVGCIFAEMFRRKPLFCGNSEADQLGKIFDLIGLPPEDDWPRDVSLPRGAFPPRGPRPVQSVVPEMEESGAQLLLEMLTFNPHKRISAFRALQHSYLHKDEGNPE
Chain of human cyclin D1-CDK4 (P24385 whole entry partner): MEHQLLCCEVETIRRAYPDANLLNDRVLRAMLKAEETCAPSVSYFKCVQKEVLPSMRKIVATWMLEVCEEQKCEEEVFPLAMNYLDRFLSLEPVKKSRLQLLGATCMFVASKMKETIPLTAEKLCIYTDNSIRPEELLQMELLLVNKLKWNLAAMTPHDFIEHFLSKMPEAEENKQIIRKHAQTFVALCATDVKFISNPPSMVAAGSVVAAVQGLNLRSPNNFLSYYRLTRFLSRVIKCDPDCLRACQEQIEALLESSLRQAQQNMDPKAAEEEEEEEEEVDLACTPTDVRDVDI
Chain of human cyclin B-CDK1 (P06493 whole entry): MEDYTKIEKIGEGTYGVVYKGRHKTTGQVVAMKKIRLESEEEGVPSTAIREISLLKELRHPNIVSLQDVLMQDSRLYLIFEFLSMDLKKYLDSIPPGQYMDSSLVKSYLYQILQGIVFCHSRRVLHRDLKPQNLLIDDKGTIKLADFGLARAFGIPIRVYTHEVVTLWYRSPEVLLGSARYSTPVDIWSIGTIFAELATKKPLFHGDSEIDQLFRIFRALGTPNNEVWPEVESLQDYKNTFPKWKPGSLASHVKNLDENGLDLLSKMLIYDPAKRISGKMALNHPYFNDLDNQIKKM
Chain of human cyclin B-CDK1 (P14635 whole entry partner): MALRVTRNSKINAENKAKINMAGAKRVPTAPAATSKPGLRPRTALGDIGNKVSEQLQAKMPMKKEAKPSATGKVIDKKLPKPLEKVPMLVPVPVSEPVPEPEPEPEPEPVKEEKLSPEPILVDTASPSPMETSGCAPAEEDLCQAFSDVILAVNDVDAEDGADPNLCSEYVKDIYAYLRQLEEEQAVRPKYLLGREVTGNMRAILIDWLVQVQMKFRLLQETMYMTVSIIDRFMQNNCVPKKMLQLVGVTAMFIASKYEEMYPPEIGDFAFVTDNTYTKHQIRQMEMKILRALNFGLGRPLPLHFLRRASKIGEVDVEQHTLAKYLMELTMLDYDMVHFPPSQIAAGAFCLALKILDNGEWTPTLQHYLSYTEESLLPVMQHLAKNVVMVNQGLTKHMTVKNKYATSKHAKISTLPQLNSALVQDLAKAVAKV

As to `CS(=O)(=O)N1CCC(Nc2nc(N)c(C(=O)c3c(F)cccc3F)s2)CC1` [Example 17, [4-Amino-2-(1-methanesulfonyl-piperidin-4-ylamino)thiazol-5-yl]-(2,6-difluorophenyl)methanone], the Ki at human cyclin E-CDK2 came to 5 nM; on human cyclin B-CDK1, 3 nM; at human cyclin D1-CDK4, 6 nM.

`COc1ccc(F)c(F)c1C(=O)c1sc(NC2CCN(S(C)(=O)=O)CC2)nc1N` [Example 14, [4-Amino-2-(1-methanesulfonylpiperidin-4-ylamino)thiazol-5-yl]-(2,3-difluoro-6-methoxyphenyl)methanone]: the Ki came out at 1 nM at human cyclin E-CDK2, 1 nM on human cyclin B-CDK1 and 2 nM on human cyclin D1-CDK4.

One may read the Ki as a measure of affinity in units of concentration, obtained from inhibition or displacement.

Source of the values: patent publication US7423053B2, “4-Aminothiazole derivatives” (Hoffmann-La Roche Inc., priority 2004, dated 2008).
